Data taken from patent US20250296971A1, “GASTRIC INHIBITORY PEPTIDE RECEPTOR LIGANDS” (priority 2021, published 2025).
*1 amine or outer side, *2 acyl side, *3 side chain or, on linkers, in order; H or OH if unused. Where a SMILES comes first, the peptide text is derived from it. Bridges are numbered along the chain shown (N, C = ends). [ ]: non-standard residue; d: D form. The star is where a group is joined. X5 = NC(=O)[C@H](CCCCNC(=O)CN1CCN(CC(=O)O)CCN(CC(=O)O)CCN(CC(=O)O)CC1)NC(=O)CCC(=O)NCCCOCCOCCOCCCN*; X19 = O=C(O)CN1CCN(CC(=O)O)CCN(CC(=O)N2CCN(Cc3cc(C[*:1])cc(C[*:2])c3)CC2)CCN(CC(=O)O)CC1; X11 = O=C(CN1CCN2CCN3CCN(CC1)CC(=O)[O][In]([O]C(=O)C2)[O]C(=O)C3)NCCCOCCOCCOCCCN*; X3 = O=C(O)CN1CCN(CC(=O)O)CCN(CC(=O)NCCCOCCOCCOCCCN*)CCN(CC(=O)O)CC1; NH(1-deoxy-D-glucityl) = OC[C@@H](O)[C@@H](O)[C@H](O)[C@@H](O)CN*; X26 = O=C(O)CN1CCN2CCN(CCN(CC(=O)*)CC1)CC(=O)[O][Zn][O]C(=O)C2; Trp(5-Cl) = N[C@@H](Cc1c[nH]c2ccc(Cl)cc12)C(=O)O; Trp(6-Cl) = N[C@@H](Cc1c[nH]c2cc(Cl)ccc12)C(=O)O; Propanoyl(3-(4-F-phenyl)) = O=C(CCc1ccc(F)cc1)*; Trp(6-F) = N[C@@H](Cc1c[nH]c2cc(F)ccc12)C(=O)O; 1Nal = N[C@@H](Cc1cccc2ccccc12)C(=O)O; Desaminotyrosyl = O=C(CCc1ccc(O)cc1)*; mXylylene = c1cc(C[*:1])cc(C[*:2])c1; Glutaryl = O=C(CCCC(=O)[*:2])[*:1]; Hydrocinnamoyl = O=C(CCc1ccccc1)*; X6 = c1cc(CSCCN[*:2])nc(C[*:1])c1; X7 = c1cc(CSCCN[*:2])cc(C[*:1])c1; Hyp = O=C(O)[C@@H]1C[C@@H](O)CN1; Cha = N[C@@H](CC1CCCCC1)C(=O)O; Suc = O=C(CCC(=O)[*:2])[*:1]; αMeS = C[C@](N)(CO)C(=O)O; Api = NC1(C(=O)O)CCNCC1; Thp = NC1(C(=O)O)CCOCC1; Deg = CCC(N)(CC)C(=O)O; Aib = CC(C)(N)C(=O)O

Biological target: T1, GIPR (CHO-K1-hGIPR cells) (Homo sapiens, UniProt P48546)
T1 construct: host or cells: CHO-K1
T1 sequence (P48546 22-466): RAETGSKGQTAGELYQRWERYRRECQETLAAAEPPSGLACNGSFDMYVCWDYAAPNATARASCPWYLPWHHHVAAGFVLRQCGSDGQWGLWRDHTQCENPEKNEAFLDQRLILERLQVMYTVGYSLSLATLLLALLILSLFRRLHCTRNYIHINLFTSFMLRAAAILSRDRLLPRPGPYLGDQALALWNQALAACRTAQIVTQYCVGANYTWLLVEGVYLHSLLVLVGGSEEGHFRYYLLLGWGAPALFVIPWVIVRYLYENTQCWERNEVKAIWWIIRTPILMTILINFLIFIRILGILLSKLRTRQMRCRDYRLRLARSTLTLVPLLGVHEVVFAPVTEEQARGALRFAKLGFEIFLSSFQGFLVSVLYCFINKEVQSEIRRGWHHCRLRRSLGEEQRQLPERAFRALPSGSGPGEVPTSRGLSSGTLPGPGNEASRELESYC
Test: FACS binding assay
Conditions: competition with 20 nM GIP-057, 4° C., 1 hour, read-out: pIC50 Category (converted)
Summary of the method: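 Read-out: flow cytometric median fluorescence intensity, APC/Cy5 channel, plotted vs peptide conc.; 4PL fit → EC50/pEC50 or IC50/pIC50. Cells: CHO-K1-hGIPR, Accutase-detached, 500.000/mL in PBS + 1% FCS. Detection: APC-streptavidin 1 μg/mL, 30 min, on ice.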

SMILES	IC50
CC[C@H](C)[C@@H]1NC(=O)[C@H](CC2CCCCC2)NC(=O)C(C)(C)NC(=O)[C@@H](NC(=O)[C@H](CC(C)C)NC(=O)[C@H](CCC(=O)O)NC(=O)[C@@H]2CCCN2C(=O)[C@H](Cc2c[nH]c3ccccc23)NC(=O)[C@H](Cc2c[nH]c3ccccc23)NC(=O)[C@H](CC(=O)O)NC(C)=O)CSCc2cccc(c2)CSC[C@@H](C(=O)NCCCOCCOCCOCCCNC(=O)CCC(=O)N[C@@H](CCCCNC(=O)CN2CCN(CC(=O)O)CCN(CC(=O)O)CCN(CC(=O)O)CC2)C(N)=O)NC1=O [GIP-134, Ac-Asp-Trp-Trp-Pro-Glu-Leu-[Cys(3MeBn)-Aib-Cha-Ile-Cys]-Ttds-Lys(DOTA)-NH2] (Ac-DWWPELC[Aib][Cha]IC-X5; linker 7-11 via mXylylene)	10 to 79.4 nM
CC[C@H](C)[C@@H]1NC(=O)[C@H](CC(C)C)NC(=O)C(C)(C)NC(=O)[C@@H](NC(=O)[C@@H](CC(C)C)NC(=O)[C@H](CCC(=O)O)NC(=O)[C@@H]2CCCN2C(=O)[C@H](Cc2c[nH]c3ccccc23)NC(=O)[C@H](Cc2c[nH]c3ccccc23)NC(=O)[C@H](CC(=O)O)NC(=O)CCc2ccccc2)CSCc2cccc(c2)CSC[C@@H](C(=O)NCCCOCCOCCOCCCNC(=O)CCC(=O)N[C@@H](CCCCNC(=O)CN2CCN(CC(=O)O)CCN(CC(=O)O)CCN(CC(=O)O)CC2)C(N)=O)NC1=O [GIP-135, Php-Asp-Trp-Trp-Pro-Glu-leu-[Cys(3MeBn)-Aib-Leu-Ile-Cys]-Ttds-Lys(DOTA)-NH2] (Hydrocinnamoyl-DWWPE[dL]C[Aib]LIC-X5; linker 7-11 via mXylylene)	10 to 79.4 nM
CC[C@H](C)[C@@H]1NC(=O)[C@H](CC(C)C)NC(=O)C(C)(C)NC(=O)[C@@H](NC(=O)[C@@H](CC(C)C)NC(=O)[C@H](CCC(=O)O)NC(=O)[C@@H]2CCCN2C(=O)[C@H](Cc2c[nH]c3ccccc23)NC(=O)[C@H](Cc2c[nH]c3ccccc23)NC(=O)[C@H](CC(=O)O)NC(=O)CCc2ccc(F)cc2)CSCc2cccc(c2)CSC[C@@H](C(=O)NCCCOCCOCCOCCCNC(=O)CCC(=O)N[C@@H](CCCCNC(=O)CN2CCN(CC(=O)O)CCN(CC(=O)O)CCN(CC(=O)O)CC2)C(N)=O)NC1=O [GIP-136, 4FPhp-Asp-Trp-Trp-Pro-Glu-leu-[Cys(3MeBn)-Aib-Leu-Ile-Cys]-Ttds-Lys(DOTA)-NH2] ({Propanoyl(3-(4-F-phenyl))}-DWWPE[dL]C[Aib]LIC-X5; linker 7-11 via mXylylene)	10 to 79.4 nM
CC[C@H](C)[C@@H]1NC(=O)[C@H](CC(C)C)NC(=O)C(C)(C)NC(=O)[C@@H](NC(=O)[C@@H](CC(C)C)NC(=O)[C@H](CCC(=O)O)NC(=O)[C@@H]2CCCN2C(=O)[C@H](Cc2c[nH]c3ccccc23)NC(=O)[C@H](Cc2c[nH]c3ccccc23)NC(=O)[C@H](CC(=O)O)NC(=O)CCc2ccc(O)cc2)CSCc2cccc(c2)CSC[C@@H](C(=O)NCCCOCCOCCOCCCNC(=O)CCC(=O)N[C@@H](CCCCNC(=O)CN2CCN(CC(=O)O)CCN(CC(=O)O)CCN(CC(=O)O)CC2)C(N)=O)NC1=O [GIP-137, 4OHPhp-Asp-Trp-Trp-Pro-Glu-leu-[Cys(3MeBn)-Aib-Leu-Ile-Cys]-Ttds-Lys(DOTA)-NH2] (Desaminotyrosyl-DWWPE[dL]C[Aib]LIC-X5; linker 7-11 via mXylylene)	10 to 79.4 nM
CC(=O)N[C@@H](CC(=O)O)C(=O)N[C@@H](Cc1c[nH]c2ccccc12)C(=O)N[C@@H](Cc1cccc2ccccc12)C(=O)N1CCC[C@H]1C(=O)N[C@@H](CCC(=O)O)C(=O)N[C@H](CC(C)C)C(=O)N[C@H]1CSCc2cccc(c2)CSC[C@@H](C(=O)NCCCOCCOCCOCCCNC(=O)CCC(=O)N[C@@H](CCCCNC(=O)CN2CCN(CC(=O)O)CCN(CC(=O)O)CCN(CC(=O)O)CC2)C(N)=O)NC(=O)[C@H](C(C)C)NC(=O)[C@H](CC(C)C)NC(=O)[C@H](C)NC1=O [GIP-138, Ac-Asp-Trp-1Ni-Pro-Glu-leu-[Cys(3MeBn)-Ala-Leu-Val-Cys]-Ttds-Lys(DOTA)-NH2] (Ac-DW[1Nal]PE[dL]CALVC-X5; linker 7-11 via mXylylene)	10 to 79.4 nM
CC[C@H](C)[C@@H]1NC(=O)[C@H](CC(C)C)NC(=O)C(CC)(CC)NC(=O)[C@@H](NC(=O)[C@@H](CC(C)C)NC(=O)[C@H](CCC(=O)O)NC(=O)[C@@H]2CCCN2C(=O)[C@H](Cc2cccc3ccccc23)NC(=O)[C@H](Cc2c[nH]c3ccccc23)NC(=O)[C@H](CC(=O)O)NC(C)=O)CSCc2cccc(c2)CSC[C@@H](C(=O)NCCCOCCOCCOCCCNC(=O)CCC(=O)N[C@@H](CCCCNC(=O)CN2CCN(CC(=O)O)CCN(CC(=O)O)CCN(CC(=O)O)CC2)C(N)=O)NC1=O [GIP-139, Ac-Asp-Trp-1Ni-Pro-Glu-leu-[Cys(3MeBn)-Deg-Leu-Ile-Cys]-Ttds-Lys(DOTA)-NH2] (Ac-DW[1Nal]PE[dL]C[Deg]LIC-X5; linker 7-11 via mXylylene)	10 to 79.4 nM
CC[C@H](C)[C@@H]1NC(=O)[C@H](CC(C)C)NC(=O)C(C)(C)NC(=O)[C@@H](NC(=O)[C@@H](CC(C)C)NC(=O)[C@H](CCC(=O)O)NC(=O)[C@@H]2CCCN2C(=O)[C@H](Cc2c[nH]c3cc(F)ccc23)NC(=O)[C@H](Cc2c[nH]c3ccccc23)NC(=O)[C@H](CC(=O)O)NC(C)=O)CSCc2cccc(c2)CSC[C@@H](C(=O)NCCCOCCOCCOCCCNC(=O)CCC(=O)N[C@@H](CCCCNC(=O)CN2CCN(CC(=O)O)CCN(CC(=O)O)CCN(CC(=O)O)CC2)C(N)=O)NC1=O [GIP-140, Ac-Asp-Trp-6Fw-Pro-Glu-leu-[Cys(3MeBn)-Aib-Leu-Ile-Cys]-Ttds-Lys(DOTA)-NH2] (Ac-DW[Trp(6-F)]PE[dL]C[Aib]LIC-X5; linker 7-11 via mXylylene)	10 to 79.4 nM
CC[C@H](C)[C@@H]1NC(=O)[C@H](CC(C)C)NC(=O)C(C)(C)NC(=O)[C@@H](NC(=O)[C@@H](CC(C)C)NC(=O)[C@H](CCC(=O)O)NC(=O)[C@@H]2CCCN2C(=O)[C@H](Cc2c[nH]c3ccccc23)NC(=O)[C@H](Cc2c[nH]c3cc(Cl)ccc23)NC(=O)[C@H](CC(=O)O)NC(=O)CCC(=O)NCCCOCCOCCOCCCNC(=O)CN2CCN(CC(=O)O)CCN(CC(=O)O)CCN(CC(=O)O)CC2)CSCc2cccc(c2)CSCCNC1=O [GIP-141, DOTA-Ttds-Asp-6Clw-Trp-Pro-Glu-leu-[Cys(3MeBn)-Aib-Leu-Ile-AET]] ({X3-Suc}-D[Trp(6-Cl)]WPE[dL]C[Aib]LI; linker 7-C via X7)	10 to 79.4 nM
CC[C@H](C)[C@@H]1NC(=O)[C@H](CC(C)C)NC(=O)C2(CCOCC2)NC(=O)[C@@H](NC(=O)[C@@H](CC(C)C)NC(=O)[C@H](CCC(=O)O)NC(=O)[C@@H]2C[C@@H](O)CN2C(=O)[C@H](Cc2c[nH]c3ccc(Cl)cc23)NC(=O)[C@H](Cc2c[nH]c3ccccc23)NC(=O)[C@H](CC(=O)O)NC(C)=O)CSCc2cc(cc(CN3CCN(C(=O)CN4CCN(CC(=O)O)CCN(CC(=O)O)CCN(CC(=O)O)CC4)CC3)c2)CSC[C@@H](C(N)=O)NC1=O [GIP-145, Ac-Asp-Trp-5Clw-Hyp-Glu-leu-[Cys(tMeBn(DOTA-PP))-Thp-Leu-Ile-Cys]-NH2] (Ac-DW[Trp(5-Cl)][Hyp]E[dL]C[Thp]LIC-NH2; linker 7-11 via X19)	10 to 79.4 nM
CC[C@H](C)[C@@H]1NC(=O)[C@H](CC(C)C)NC(=O)C2(CCN(C(=O)CN3CCN(CC(=O)O)CCN4CCN(CC3)CC(=O)[O][Zn][O]C(=O)C4)CC2)NC(=O)[C@@H](NC(=O)[C@@H](CC(C)C)NC(=O)[C@H](CCC(=O)O)NC(=O)[C@@H]2C[C@@H](O)CN2C(=O)[C@H](Cc2c[nH]c3ccc(Cl)cc23)NC(=O)[C@H](Cc2c[nH]c3ccccc23)NC(=O)[C@H](CC(=O)O)NC(=O)CCCC(=O)NC[C@H](O)[C@@H](O)[C@H](O)[C@H](O)CO)CSCc2cccc(n2)CSCCNC1=O [GIP-147, AGLU-Glutar-Asp-Trp-5Clw-Hyp-Glu-leu-[Cys(2Lut)-Apc(ZnDOTA)-Leu-Ile-AET]] ({NH(1-deoxy-D-glucityl)-Glutaryl}-DW[Trp(5-Cl)][Hyp]E[dL]C[Api](X26)LI; linker 7-C via X6)	< 10 nM
CC[C@H](C)[C@@H]1NC(=O)[C@H](CC(C)C)NC(=O)C(C)(C)NC(=O)[C@@H](NC(=O)[C@@H](CC(C)C)NC(=O)[C@H](CCC(=O)O)NC(=O)[C@@H]2CCCN2C(=O)[C@H](Cc2c[nH]c3ccc(Cl)cc23)NC(=O)[C@H](Cc2c[nH]c3ccccc23)NC(=O)[C@H](CC(=O)O)NC(=O)CCC(=O)NCCCOCCOCCOCCCNC(=O)CN2CCN3CCN4CCN(CC2)CC(=O)[O][In]([O]C(=O)C3)[O]C(=O)C4)CSCc2cccc(c2)CSCCNC1=O [GIP-148, InDOTA-Ttds-Asp-Trp-5Clw-Pro-Glu-leu-[Cys(3MeBn)-Aib-Leu-Ile-AET]] ({X11-Suc}-DW[Trp(5-Cl)]PE[dL]C[Aib]LI; linker 7-C via X7)	< 10 nM
CC[C@H](C)[C@@H]1NC(=O)[C@H](CC(C)C)NC(=O)[C@](C)(CO)NC(=O)[C@@H](NC(=O)[C@@H](CC(C)C)NC(=O)[C@H](CCC(=O)O)NC(=O)[C@@H]2CCCN2C(=O)[C@H](Cc2c[nH]c3ccc(Cl)cc23)NC(=O)[C@H](Cc2c[nH]c3ccccc23)NC(=O)[C@H](CC(=O)O)NC(=O)CCC(=O)NCCCOCCOCCOCCCNC(=O)CN2CCN3CCN4CCN(CC2)CC(=O)[O][In]([O]C(=O)C3)[O]C(=O)C4)CSCc2cccc(c2)CSCCNC1=O [GIP-149, InDOTA-Ttds-Asp-Trp-5Clw-Pro-Glu-leu-[Cys(3MeBn)-Ams-Leu-Ile-AET]] ({X11-Suc}-DW[Trp(5-Cl)]PE[dL]C[αMeS]LI; linker 7-C via X7)	< 10 nM
